According to patent publication US9504702B2, “Methods of inhibition of protein fucosylation in vivo using fucose analogs” (Seattle Genetics, Inc., priority 2010, dated 2016):
Like-named read-outs stand apart in the source and are kept apart here.

Columns and labels:
[1] = test system: antibody core fucosylation (CHO DG44 cell line producing humanized IgG1 anti-CD70 antibody h1F6); assay: Inhibition of antibody core fucosylation in CHO DG44 cell culture producing h1F6; type: cell-based; conditions: day 5, CHO DG44 h1F6; for Inhibition at 50 μM: 50 μM fucose analog; for Inhibition at 1 mM / inhibition at 1000 µM: 1 mM fucose analog
Method: (§1) Fucose analogs have been evaluated for their effect on antibody core fucosylation at concentrations of 50 μM and 1 mM generally as described in Published US Patent Application 2009-0317869. Briefly, the protocol was as follows: A CHO DG44 cell line producing a humanized IgG1 anti-CD70 monoclonal antibody, h1F6 (see International Patent Publication WO 06/113909) was cultured at 7.5×10^5 cells per mL in 2 mLs of CHO culture media at 37°, 5% CO2 and shaking at 100 RPM in a 6 well tissue culture plate. Media was supplemented with insulin like growth factor (IGF), penicillin, streptomycin and either 1 mM or 50 μM of the fucose analog. On day 5 post inoculation, the culture was centrifuged at 13000 RPM for 5 minutes to pellet the cells; antibodies were then purified from supernatant.
(§2) Antibody purification was performed by applying the conditioned media to protein A resin pre-equilibrated with 1× phosphate buffered saline (PBS), pH 7.4. After washing resin with 20 resin bed volumes of 1×PBS, antibodies were eluted with 5 resin bed volumes of Immunopure IgG elution buffer (Pierce Biotechnology, Rockford, Ill.). A 10% volume of 1M Tris pH 8.0 was added to neutralize the eluted fraction.

[2] = test system: antibodies (h1F6 produced by CHO DG44 cell line); assay: Incorporation of fucose analogs into antibodies in CHO DG44 cell culture; type: cell-based
Method: as §1, §2
Certain other fucose analogs were tested for their ability to be incorporated into antibodies. These fucose analogs were tested at concentrations of 50 μM and 1 mM using the methodology as described above.

[3] = test system: LP-1, a human multiple myeloma cell line (IgG fucosylation); assay: Fucosylation of LP-1-generated IgG, AOL dot blot; type: cell-based; conditions: for % of control fucosylated IgG value / dot blot results (% fucose signal of control) / inhibition of IgG fucosylation in human cells (decrease in AOL signal, dot blot): 100 μM; for % of control fucosylated IgG value / activity at 100 µM: 5 days, AOL dot blot, multiple samples separated by semicolon; for % of control fucosylated IgG value / activity at 100 µM / inhibition of IgG fucosylation in human cells (decrease in AOL signal, dot blot): LP-1 cells; for activity at 100 µM: Homo sapiens, LP-1, 120 h, read-out: % of control fucosylated IgG value; for dot blot results (% fucose signal of control): LP-1-generated IgG
Method: To further evaluate the activities of different fucose analogs, 48 different fucose analogs and other four glycosylation inhibitors were tested for their ability to affect the fucosylation the LP-1-generated IgG. LP-1 cells (250,000 cells/mL, 3 mL per compound in 6-well plates) were incubated with 100 μM of each fucose analog for 5 days at 37° C. with a humidified atmosphere of 5% CO2 in IgG-depleted tissue culture media (90% RPMI with 10% IgG-depleted heat inactivated FBS). The IgG was isolated as described above using only 0.5 mL of MabSelect™ protein A resin slurry and one spin cup per sample with elution in 400 μL of IgG elution buffer into 25 μL of 9 M Tris buffer, pH 9. The eluates were concentrated to 10-20 μL per sample and 2 μL of each of the concentrated eluates were dotted onto a nitrocellulose membrane and stained with Ponceau S to estimate and adjust the sample loading for AOL staining. From this estimation of total protein in each sample, approximately 0.5 μg of each sample was dotted onto the membrane, air-dried, and stained with Ponceau S. An image of this stained membrane was captured using an Alpha Innotech FlourChem® Q system. The membrane was then blocked with 5% Bovine Serum Albumin (BSA) in Tris Buffered Saline (TBS) for 1 hr, washed with TBST (TBS with […]) 3 times and then incubated with 5 μg/ml biotinylated-AOL for 1 hr. The membrane was washed again with TBST 3 times, followed by Streptavidin-HRP incubation for 30 min and final washes with TBST 3 times.

[4] = test system: antibody core fucosylation (antibodies that did not bind to KLH, recovered from protein A column); assay: In vivo antibody fucosylation after ip dosing (Example 1, Study 1), AOL lectin dot blot; conditions: 150 mg/kg ip daily for 7 days
Method: Female BALB/c mice were immunized with Keyhole Limpet Hemocyanin (KLH) 30-60 days prior to starting this study. For the first study, mice were dosed ip with 150 mg/kg of alkynyl fucose (SGD-1887), alkynyl fucose peracetate (SGD-1890), 2-fluorofucose (SGD-2083), or 2-fluorofucose triacetate (SGD-2084) daily for 7 days or were untreated. On day 2, mice were also boosted with KLH. On the day after the last ip dose, mice were terminally bled and serum obtained. For the second study, mice were given 100 mM of 2-fluorofucose (SGD-2083) in their drinking water or given untreated water for 7 days, boosted with KLH, and continued with 100 mM 2-fluorofucose containing drinking water or untreated water for 7 more days before being terminally bled. Serum was then obtained. No mice died in either study. For both studies, serum was passed over a commercial anti-KLH affinity column to obtain KLH-specific polyclonal antibodies. The flow through from the anti-KLH affinity column was passed over a commercial protein A column to obtain the remaining antibodies.
Dot blots: 0.5 μg each of antibodies from untreated and treated animals, as well as standards of antibody cAC10 having known amounts of core fucosylation (0 to 100% fucose), were blotted onto a nitrocellulose membrane. The proteins levels were visualized by Ponceau staining. The blot was probed with biotinylated Aspergillus oryzae L-fucose-specific lectin (AOL) (which binds to fucosylated antibodies) and developed with streptavidin HRP and ECL. Gel loading (visible) and fucose signals (bioluminescence) were measured with an Alpha Innotech camera and quantitated with the machine software.

[5] = test system: P-selectin ligand on Ramos cells; assay: Cell surface P-selectin ligand by FACS, P-selectin fusion protein, Ramos; type: cell-based, human
Method: 100 μM of each inhibitor was used under standard culture conditions for approximately 1-2 weeks with regular changes of culture medium including fresh inhibitor. After the incubation period, the cells were analyzed by FACS using four different detection reagents: biotinylated-Lens culimaris agglutinin-A (LCA), anti-Lewis' antibody (anti-SSEA1), an anti-Lewis^y antibody (cBR96), and a Recombinant Human P-Selectin/CD62P/Fc Fusion protein. The procedure involved washing of the cells with FACS buffer (PBS+10% bovine serum albumin+0.02% sodium azide) 3 times followed by incubation with the primary detection reagent for 1 hr at 4° C., followed by 3 washes with FACS buffer and then incubation with the secondary detection reagent for 1 hr at 4° C. The cells were finally washed with FACS buffer 3 times and resuspended in FACS buffer and examined using a BD FACScan instrument. […] The P-selectin fusion protein detects P-selectin ligand present on the surface of cells, an interaction which involves the sialyl Lewis' epitope present of the P-selectin ligand.

[6] = test system: LP-1 cells (1,6-fucosylation on the antibody); assay: Fucosylation status of LP-1-generated IgG by reducing PLRP-MS; type: cell-based, human; conditions: 5 days; for PLRP/MS (inhibition or incorporation): in words
Source text: To further define the results of the AOL dot blot, samples of the IgGs produced by cells treated with the following fucose analogs (that gave moderate to strong decreases in the dot blot AOL signal) were isolated and examined by reducing PLRP-MS to verify the fucosylation status using the MW of the heavy chain: alkynyl fucose peracetate; 5-vinylfucose tetraaceate; 5-methylketofucose tetraacetate; 6-bromofucose tetraacetate; 6-fluorofucose tetraacetate; 5-ethylfucose tetraacetate; 5-epoxyfucose tetraacetate; 6′6-difluorofucose tetraacetate; 6-keto-6-ethyl fucose tetraacetate; and 2-fluorofucose peracetate.
40 mL samples of LP-1 cells (250,000 cells/mL) were treated with 100 μM of a fucose analog for 5 days as described above, and the IgGs were purified as described using protein A resin. The yields were estimated by UV spectroscopy assuming an extinction coefficient of 1.4 AU/(mg/mL). Seven of the ten compounds yielded enough IgG to perform the analysis (use of SGD-2067, SGD-1964, and SGD-2020 yielded <10 μg of IgG, likely due to toxicity of the analogs to the cells). The remaining IgGs were reduced with 10 mM DTT at 37° C. for 15 min and were separated on PLRP followed by MS analysis using a QTOF mass spectrometer. The resulting heavy chain peaks were examined and compared to the IgG generated by untreated cells.
The mass spectrometry signals were evaluated by comparing the peak height of the heavy chain versus heavy chain minus fucose and heavy chain minus fucose plus the mass of the fucose analog (which would arise if there was incorporation of the analog into the antibody carbohydrate).

[7] = concentration not given in the cell (tested at 50 μM and 1 mM)
[8] = 120 h, read-out: Inhibition at 50 μM

| Compound | Inhibition at 50 μM [1] | Inhibition at 1 mM [1] | % Incorporation ([2]; 50 uM) | % Incorporation ([2]; 1 mM) | activity at 100 µM [3] | dot blot results (% fucose signal of control) [3] | PLRP/MS (inhibition or incorporation) ([6]; 100 μM) | inhibition of IgG fucosylation in human cells (decrease in AOL signal, dot blot) [3] | other results |
| --- | --- | --- | --- | --- | --- | --- | --- | --- | --- |
| 6-allene fucose tetraacetate [SGD-2097] | 23% | 34% | – | – | – | – | – | – | % Incorporation [2, 7]: ~30%; % of control fucosylated IgG value [3]: 45 % of control |
| CC[C@@H]1OC(O)[C@@H](O)[C@H](O)[C@@H]1O (stereo partly drawn) [5-ethyl fucose, (3S,4R,5S,6S)-6-ethyl-tetrahydro-2H-pyran-2,3,4,5-tetraol] | – | – | >80% | >80% | – | – | – | – | – |
| CC(=O)OC1O[C@@H]([C@]2(C)CO2)[C@@H](OC(C)=O)[C@@H](OC(C)=O)[C@@H]1OC(C)=O (stereo partly drawn) [5-methyloxiran-arabinose tetraacetate, (3S.4R.5S.6R)-6-((S)-2-methyloxiran-2-yl)-tetrahydro-2H-pyran-2,3,4,5-tetrayl tetraacetate] | ~0% | ~35-40% | – | – | – | – | – | – | % Incorporation [2, 7]: ~60% |
| C=C(C)[C@@H]1OC(OC(C)=O)[C@@H](OC(C)=O)[C@H](OC(C)=O)[C@@H]1OC(C)=O (stereo partly drawn) [Isopropenyl peracetyl fucose, (3S,4R,5R,6S)-6-(prop-1-en-2-yl)-tetrahydro-2H-pyran-2,3,4,5-tetrayl tetraacetate] | – | – | >80% (1 mM and 50 uM) | >80% (1 mM and 50 uM) | – | – | – | – | – |
| C#CC(O)[C@@H](O)[C@@H](O)[C@H](O)C=O (some centres unmarked) [SGD-1887, 5-ethynylarabinose] | – | – | – | – | 3% | – | – | – | mortality [4]: No mice died; fucosylation levels of the antibodies reduced, as compared to the untreated controls ([4]; non-KLH antibodies from protein A column, dot blot, on average): about one third; Inhibition at 50 μM [1, 8]: > 80%; signal for P-selectin ligand (increase upon treatment) [5]: not observed |
| C=CC1OC(OC(C)=O)C(OC(C)=O)C(OC(C)=O)C1OC(C)=O (centres unmarked) [SGD-1922, 5-ethylenylarabinose tetraacetate] | ~0% | ~4% | – | – | – | 2 % fucose signal of control | Full incorporator | – | % of control fucosylated IgG value [3]: 2 % of control |
| CC(=O)OC1OC(CBr)[C@@H](OC(C)=O)[C@@H](OC(C)=O)[C@@H]1OC(C)=O (stereo partly drawn) [SGD-1969, (3S,4R,5S)-6-(bromomethyl)tetrahydro-2H-pyran-2,3,4,5-tetrayl tetraacetate] | – | – | ~50% | 20% at | 1% | 1 % fucose signal of control | Partial incorporator | potentially strong inhibitors | Inhibition at 50 μM [1, 8]: 50%; inhibition at 1000 µM ([1]; 120 h): 80%; inhibition at 100 µM ([6]; Homo sapiens, 120 h, heavy chain peak heights, read-out: PLRP/MS fucose inhibition): 20% |
| C#CC[C@@H]1OC(OC(C)=O)[C@@H](OC(C)=O)[C@H](OC(C)=O)[C@@H]1OC(C)=O (stereo partly drawn) [SGD-1987, (3S,4R,5R,6S)-6-(prop-2-ynyl)-tetrahydro-2H-pyran-2,3,4,5-tetrayl tetraacetate] | – | – | – | 80% (1 mM) | 38% | – | – | – | Inhibition at 50 μM [1, 8]: ~10%; inhibition at 1000 µM ([1]; 120 h): 10 to 20% |
| CC(=O)OC1OC(CF)[C@@H](OC(C)=O)[C@@H](OC(C)=O)[C@@H]1OC(C)=O (stereo partly drawn) [SGD-1988, (3S,4R,5S)-6-(fluoromethyl)tetrahydro-2H-pyran-2,3,4,5-tetrayl tetraacetate] | – | – | >90% | >90% | 15% | 15 % fucose signal of control | Full incorporator | potentially strong inhibitors | – |
| CC[C@@H]1OC(OC(C)=O)[C@@H](OC(C)=O)[C@H](OC(C)=O)[C@H]1OC(C)=O (stereo partly drawn) [SGD-1989, (3S,4R,5S,6S)-6-ethyl-tetrahydro-2H-pyran-2,3,4,5-tetrayl tetraacetate] | – | – | >90% | >90% | 11% | 11 % fucose signal of control | Fully incorporated | potentially strong inhibitors | – |
| CC(=O)OC1OC(C(F)F)C(OC(C)=O)C(OC(C)=O)C1OC(C)=O (centres unmarked) [SGD-2046, 6′6-difluoro fucose tetraacetate] | >80% | >80% | – | – | – | 2 % fucose signal of control | Partial incorporator | potentially strong inhibitors | % of control fucosylated IgG value [3]: 2 % of control; PLRP/MS fucose inhibition ([6]; 100 μM, heavy chain peak heights): ~33% |
